Experimental data taken from patent US20160279154A1, “MITOCONDRIALLY-TARGETED TIMOQUINONES AND TOLUQUINONES” (MITOTECH SA, priority 2014, published 2016).
“Also recorded” adds a separate entry of the source.

Experiments:
[1] = system: multi-drug resistance (MDR) proteins in HeLa cells; test: Accumulation of SkQ variants in HeLa cells / expulsion by MDR pumps (flow cytometry); format: cell-based, human; settings: for accumulation in HeLa cells after MDR inhibitor: 100 nM SkQs, Pluronic L61 30 ug/ml added 10 minutes before, FIG. 17; for order of decreasing MDR-affinity: correlation suggested by the example
Procedure: In the following experiment we have evaluated MDR expulsion of a timoquinone based SkQRT. HeLa cells were treated with 100 nM SkQRT and the activity of multidrug resistance pumps was estimated by fluorescence measurement using a Beckman Coulter FC 500 flow cytometer. […] Cells were incubated with 100 nM SkQs. After 60 minute, the medium was changed to control medium without SkQs (indicated with vertical line). […] It must be noted that MDR pumps are usually activated in tumor cells (for example HeLa), but not in normal non-malignant cells (fibroblasts or 3T3 cells).

[2] = system: primary cultured human fibroblasts; test: Accumulation in primary cultured human fibroblasts (non-tumor cells); format: cell-based; settings: FIG. 18
human fibroblasts = test: Protection from peroxide-induced cell death; format: cell-based; settings: for protection from H2O2-induced apoptosis: FIG. 22
Procedure: Its activity was compared to the one of the most efficient MTA-SkQR1. The experiment was performed according to Antonenko et al., (Biochem. (Mosc.) (2008) 73:1273-1287 and the results are shown in FIG. 11.
The experiment was performed according to Antonenko et al., (Biochem. (Mosc.) (2008) 73:1273-1287. (see FIG. 12).
These experiments were performed as described in Antonenko et al (2008).

isolated mitochondria = test: Antioxidant activity in isolated mitochondria damaged by the Fenton reaction; settings: FIG. 20
Procedure: Antioxidant activity was measured in isolated mitochodnria subjected to oxidative damage by the Fenton reaction (method described in Antonenko et al 2008).

mitochondria [3] = test: Hydrogen peroxide production by mitochondria in the presence of antimycin A; format: biochemical; settings: FIG. 21
Description: In the next experiment we measured hydrogen peroxide production by mitochondria in the presence of antimycin A (as described in Skulachev et al 2010, Biochim Biophys Acta, 1797(6-7), 878-8).

energized mitochondria = test: Reduction of SkQB by energized mitochondria; format: biochemical; settings: FIG. 19
[4] = system: Y. lipolytica mitochondria; test: H2O2 formation by Y. lipolytica mitochondria (Amplex red); format: biochemical; settings: for rate of H2O2 formation by Y. lipolytica mitochondria: certain concentrations, 0.1 mg mitochondrial protein, FIG. 13, 14
Procedure: The experiment was performed in the following conditions: incubation medium contained 0.6 M mannitol, 20 mM Tris-succinate,0.5 mM EGTA, 0.2 mM Tris-phosphate, pH 7.2, 2 uM Amplex red, horse radish peroxidase (5 U) and mitochondria corresponding to 0.1 mg protein. […] Measurements were made using absorption/emission 530/590 nm.

rat liver mitochondria = test: H2O2 formation by rat liver mitochondria (prooxidant effect, Amplex Red); format: biochemical; settings: up to 15 um concentrations in the medium; FIG. 15
Procedure: Incubation medium contained 0.18 M mannitol, 0.07 M sucrose, 0.2 mM Tris-phosphate, 0.5 mM EGTA, pH 7.2, 20 mM Tris-succinate, 2 uM Amplex Red, 5 U horseradish Peroxidase, 6 mM aminotriazole (an inhibitor of catalase) and mitochondria corresponding to 0.25 mg protein. Excitation wavelength was of 563 nm, Emission wavelength was of 585 nm.

mitochondria [5] = settings: mitochondria supplemented with certain concentrations of SkQT; FIG. 8
Description: Several compounds according to the invention were synthesized as described above and tested for biological activity as described in Antonenko et al., (Biochem. (Mosc.) (2008) 73:1273-1287).

[6] = system: electron transport chain (ETC) of mitochondria isolated from rat heart

CC/N=c1/cc2oc3cc(NCC)c(C)cc3c(-c3ccccc3C(=O)OCCCCCCCCCCC3=CC(=O)C(C)=C(C)C3=O)c-2cc1C [SkQR1, reference compound]
accumulation in HeLa cells after MDR inhibitor [1]: increased accumulation | accumulation in human fibroblasts, SkQR1 compared with SkQRT1 [2]: no significant difference

CCN=c1cc2oc3cc(NCC)c(C)cc3c(-c3ccccc3C(=O)OCCCCCCCCCCC3=CC(=O)C(C)=CC3=O)c-2cc1C [SkQRT1, 10-(2-methyl-1,4-benzoquinonyl-5)-decyl ester of rhodamine 19]
accumulation in HeLa cells after MDR inhibitor [1]: increased accumulation | accumulation in human fibroblasts, SkQR1 compared with SkQRT1 [2]: no significant difference

CC1=C(C)C(=O)C(CCCCCCCCCC[P+](c2ccccc2)(c2ccccc2)c2ccccc2)=C(C)C1=O [SkQ3]
order of decreasing MDR-affinity [1]: SkQB>SkQT>SkQ1>SkQ3

O=C1C=CC(=O)C(CCCCCCCCCC[P+](c2ccccc2)(c2ccccc2)c2ccccc2)=C1 [SkQB, 10-(1,4-benzoquinonyl-2)decyltriphenylphosphonium bromide]
protection from H2O2-induced apoptosis (human fibroblasts): weak protection | antioxidant activity (isolated mitochondria): very weak antioxidant activity; also recorded: lower compared to SkQ1 | hydrogen peroxide production (pro-oxidant activity) (mitochondria [3]): pronounced pro-oxidant activity; also recorded: to a greater extent than SkQ1 | order of decreasing MDR-affinity [1]: SkQB>SkQT>SkQ1>SkQ3 | reduction by energized mitochondria (energized mitochondria): can be reduced by energized mitochondria in an antimycin-sensitive way

CC1=C(C)C(=O)C(CCCCCCCCCC[P+](c2ccccc2)(c2ccccc2)c2ccccc2)=CC1=O.[Br-] [SkQ1, reference compound]
protection from H2O2-induced apoptosis (human fibroblasts): good protection | order of decreasing MDR-affinity [1]: SkQB>SkQT>SkQ1>SkQ3 | rate of H2O2 formation by Y. lipolytica mitochondria [4]: considerably lower | prooxidant effect: stimulation of H2O2 formation by rat liver mitochondria at high concentrations (rat liver mitochondria): prooxidant effect

10-(2-methyl-1,4-benzoquinonyl-5)decyltriphenylphosphonium bromide [SkQT]
protection of mitochondria from oxidative damage (malondialdehyde concentration) (mitochondria [5]): successfully protected mitochondria from oxidative damage | effect of myxothiasole on reduction of the quinone form ([6]; 1 uM myxothiasole added at 10 min point, FIG. 10): prevented further reduction | reduction by mitochondria ([6]; rat heart mitochondria 0.05 mg/ml, 5 mM succinate, 2 uM rotenone, 100 nM SkQT, FIG. 9): can be reduced by mitochondria | prevention of peroxide-induced cell death (human fibroblasts; FIG. 11): very efficient | protection from H2O2-induced cell death by different dosages (human fibroblasts; FIG. 12): protection of human fibroblasts | protection from H2O2-induced apoptosis (human fibroblasts): good protection | rate of H2O2 formation by Y. lipolytica mitochondria [4]: dramatically decrease | window between lowest and highest no effect doses ([4]; compared with SkQ1, biological examples 5 and 6): much wider | hydrogen peroxide formation by mitochondria at optimal concentration ([4]; optimal concentration, biological examples 5 and 6): almost completely prevented hydrogen peroxide formation | prooxidant effect: stimulation of H2O2 formation by rat liver mitochondria at high concentrations (rat liver mitochondria): did not stimulate H202 formation
